From patent US7816350B2, “Substituted [1,2,3] triazolo[4,5-D]pyrimidines as cdk inhibitors” (Institute of Experimental Botany ASCR, priority 2002, dated 2010)

How the values were obtained:
p34^cdc2/cyclin B (CDC2) = target: T1, p34^cdc2/cyclin B (CDC2) (Homo sapiens, UniProt P06493); experiment: CDK inhibition assay, p34cdc2/cyclin B kinase, histone H1 phosphorylation; type: biochemical
T1 construct: made in house; host or cells: Sf9 insect cells (baculovirus co-infection)
Method: Cyclin-dependent kinases (p34^cdc2, p33^cdk2) and cyclins (cyclin B, E) are produced in Sf9 insect cells coinfected with appropriate baculoviral constructs. The cells are harvested 68-72 hrs post infection in lysis buffer for 30 min on ice and the soluble fraction is recovered by centrifugation at 14.000 g for 10 min. The protein extract is stored at −80° C.
Lysis buffer: 50 mM Tris pH 7.4, 150 mM NaCl, 5 mM EDTA, 20 mM NaF, 1% Tween, 1 mM DTT, 0.1 mM PMSF, leupeptine, aprotonine.
To carry out experiments on kinetics under linear conditions, the final point test system for kinase activity measurement is used. The kinase is added to reaction mixture in such a way as to obtain linear activity with respect to the concentration of enzyme and with respect to time.
The p34^cdc2 and p33^cdk2 kinase inhibition determination involves the use of 1 mg/ml histone H1 (Sigma, type III-S) in the presence of 15 μM [γ-^32P]ATP ([…]) (Amersham) in a final volume of 20 μl. Kinase activity is determined at 30° C. in the kinase buffer.
Tested compounds are usually dissolved to 100 mM solutions in DMSO, final concentration of DMSO in reaction mixture never exceeds 1%. The controls contain suitable dilutions of DMSO.
After 10 min, addition 3×SDS sample buffer stops the incubations. Phosphorylated proteins are separated electrophoretically using 12.5% SDS polyacrylamide gel. The measurement of kinase activity is done using digital image analysis.
The kinase activity is expressed as a percentage of maximum activity, the apparent inhibition constants are determined by graphic analysis (FIG. 1).
Kinase buffer: 50 mM Hepes pH 7.4, 10 mM MgCl2, 5 mM EGTA, 10 mM 2-glycerolphosphate, 1 mM NaF, 1 mM DTT

IκB-α kinase = IκB-α kinase inhibitory activity, in vitro kinase assay; type: biochemical

T1 sequence (P06493 whole entry, species assumed): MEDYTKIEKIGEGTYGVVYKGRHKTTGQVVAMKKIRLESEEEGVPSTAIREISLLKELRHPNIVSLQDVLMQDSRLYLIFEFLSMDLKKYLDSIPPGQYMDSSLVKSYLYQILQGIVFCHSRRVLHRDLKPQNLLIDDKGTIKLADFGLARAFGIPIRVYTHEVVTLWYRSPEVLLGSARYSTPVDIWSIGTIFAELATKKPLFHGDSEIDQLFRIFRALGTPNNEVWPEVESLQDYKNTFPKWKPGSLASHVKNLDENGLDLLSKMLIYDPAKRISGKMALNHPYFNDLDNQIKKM
T1 sequence (P14635 whole entry partner, species assumed): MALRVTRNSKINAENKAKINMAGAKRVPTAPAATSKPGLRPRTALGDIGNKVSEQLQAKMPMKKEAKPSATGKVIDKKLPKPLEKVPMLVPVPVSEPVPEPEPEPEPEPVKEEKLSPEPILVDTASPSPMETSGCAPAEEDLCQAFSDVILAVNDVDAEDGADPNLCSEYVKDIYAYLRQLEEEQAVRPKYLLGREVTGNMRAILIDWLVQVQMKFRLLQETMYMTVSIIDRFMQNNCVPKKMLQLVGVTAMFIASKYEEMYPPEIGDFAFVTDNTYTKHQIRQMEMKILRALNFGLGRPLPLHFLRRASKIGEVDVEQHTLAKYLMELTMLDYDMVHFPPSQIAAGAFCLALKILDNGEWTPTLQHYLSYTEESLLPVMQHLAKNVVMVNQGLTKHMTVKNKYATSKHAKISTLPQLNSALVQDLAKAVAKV

Compound `CC[C@H](CO)Nc1nc(NCc2cccc(C(C)=O)c2)c2nnn(C(C)C)c2n1` has an IC50 (p34^cdc2/cyclin B (CDC2)) of 58 µM and an IC50 (IκB-α kinase) greater than 100 µM.

`CC[C@H](CO)Nc1nc(Nc2ccc(Br)cc2)c2nnn(C(C)C)c2n1` gave an IC50 (p34^cdc2/cyclin B (CDC2)) of 26 µM and an IC50 (IκB-α kinase) of 90 µM.

`CC(C)n1nnc2c(NCc3ccccc3)nc(N(CCO)CCO)nc21` was tested, and the IC50 (p34^cdc2/cyclin B (CDC2)) was 95 µM and the IC50 (IκB-α kinase) was greater than 100 µM.

For `CC[C@H](CO)Nc1nc(Nc2ccc(Cl)cc2)c2nnn(C(C)C)c2n1`, the IC50 (p34^cdc2/cyclin B (CDC2)) was 27 µM.

`Cn1nnc2c(NCc3c(N)cccc3Cl)nc(NCCO)nc21` was tested, and the IC50 (p34^cdc2/cyclin B (CDC2)) was 52 µM and the IC50 (IκB-α kinase) was 68 µM.

`Cn1nnc2c(Nc3ccccc3)nc(NCCO)nc21` [2-hydroxyethylamino / anilino / methyl] was tested, and the IC50 (p34^cdc2/cyclin B (CDC2)) was 42 µM and the IC50 (IκB-α kinase) was greater than 100 µM.

For `CC(C)[C@H](CO)Nc1nc(NCc2ccc(Cl)c(N)c2)c2nnn(C(C)C)c2n1`, the IC50 (p34^cdc2/cyclin B (CDC2)) was 30 µM and the IC50 (IκB-α kinase) was greater than 100 µM.

With `CC(C)n1nnc2c(NCc3ccccc3)nc(NCCCO)nc21` [2-(3-Hydroxypropylamino)-6-benzylamino-9-isopropyl-8-azapurine] the IC50 (p34^cdc2/cyclin B (CDC2)) was greater than 100 µM and the IC50 (IκB-α kinase) was greater than 100 µM.

For `CC(C)[C@H](CO)Nc1nc(Nc2cc(N)cc(Cl)c2)c2nnn(C(C)C)c2n1`, the IC50 (p34^cdc2/cyclin B (CDC2)) was 27 µM and the IC50 (IκB-α kinase) was 80 µM.

With `Cn1nnc2c(Nc3ccc(C(=O)O)c(Cl)c3)nc(NCCO)nc21` the IC50 (p34^cdc2/cyclin B (CDC2)) was 52 µM and the IC50 (IκB-α kinase) was greater than 100 µM.

In the case of `Cn1nnc2c(NCc3ccc(Cl)c(N)c3N)nc(NCCO)nc21`, the IC50 (p34^cdc2/cyclin B (CDC2)) is reported as 68 µM and the IC50 (IκB-α kinase) is reported as greater than 100 µM.

`Cn1nnc2c(NCc3ccccc3)nc(N(CCO)CCO)nc21` showed an IC50 (IκB-α kinase) greater than 100 µM.

Work on `CC[C@H](CO)Nc1nc(NCc2ccc(Cl)c(N)c2N)c2nnn(C(C)C)c2n1` yielded an IC50 (p34^cdc2/cyclin B (CDC2)) of 45 µM and an IC50 (IκB-α kinase) greater than 100 µM.

In the case of `Cn1nnc2c(NCc3cccc(Cl)c3O)nc(NCCO)nc21`, the IC50 (p34^cdc2/cyclin B (CDC2)) is reported as 70 µM and the IC50 (IκB-α kinase) is reported as greater than 100 µM.

Compound `Cn1nnc2c(Nc3ccc(Cl)c(N)c3)nc(NCCO)nc21` has an IC50 (p34^cdc2/cyclin B (CDC2)) greater than 100 µM and an IC50 (IκB-α kinase) greater than 100 µM.

Compound `CC(C)[C@H](CO)Nc1nc(NCc2ccccc2)c2nnn(C(C)C)c2n1` has an IC50 (p34^cdc2/cyclin B (CDC2)) of 15 µM and an IC50 (IκB-α kinase) of 50 µM.

For `CC[C@H](CO)Nc1nc(Nc2ccc(Cl)c(C(=O)O)c2)c2nnn(C(C)C)c2n1`, the IC50 (p34^cdc2/cyclin B (CDC2)) was 40 µM and the IC50 (IκB-α kinase) was greater than 100 µM.

`CC(=O)Oc1cccc(CNc2nc(NCCO)nc3c2nnn3C)c1` gave an IC50 (p34^cdc2/cyclin B (CDC2)) of 48 µM and an IC50 (IκB-α kinase) of 50 µM.

With `CCC(CO)Nc1nc(NC(CO)c2ccccc2)c2nnn(C(C)C)c2n1` (stereo not shown) the IC50 (IκB-α kinase) was greater than 100 µM.

With `CC(C)n1nnc2c(NCc3ccccc3)nc(NCCO)nc21` the IC50 (p34^cdc2/cyclin B (CDC2)) was greater than 100 µM and the IC50 (IκB-α kinase) was greater than 100 µM.

Work on `Cn1nnc2c(NCc3ccccc3O)nc(NCCO)nc21` yielded an IC50 (p34^cdc2/cyclin B (CDC2)) of 23 µM and an IC50 (IκB-α kinase) of 45 µM.

`CC(C)[C@H](CO)Nc1nc(N(C)CCc2ccc(O)c(O)c2)c2nnn(C(C)C)c2n1` gave an IC50 (IκB-α kinase) greater than 100 µM.

With `CC[C@H](CO)Nc1nc(N(C)Cc2ccc(O)c(O)c2)c2nnn(C(C)C)c2n1` the IC50 (IκB-α kinase) was greater than 100 µM.

`Cn1nnc2c(NCc3cccc(O)c3)nc(NCCO)nc21` showed an IC50 (p34^cdc2/cyclin B (CDC2)) of 17 µM and an IC50 (IκB-α kinase) of 40 µM.

With `Cn1nnc2c(NCc3ccccc3)nc(NCCO)nc21` the IC50 (p34^cdc2/cyclin B (CDC2)) was greater than 100 µM and the IC50 (IκB-α kinase) was greater than 100 µM.

`CC[C@H](CO)Nc1nc(NCc2ccccc2C(C)=O)c2nnn(C(C)C)c2n1` gave an IC50 (p34^cdc2/cyclin B (CDC2)) of 37 µM and an IC50 (IκB-α kinase) greater than 100 µM.

For `Cc1cccc(CNc2nc(NCCO)nc3c2nnn3C)c1O`, the IC50 (p34^cdc2/cyclin B (CDC2)) was 85 µM and the IC50 (IκB-α kinase) was greater than 100 µM.

`CC[C@H](CO)Nc1nc(NCc2cc(O)c(Cl)cc2O)c2nnn(C(C)C)c2n1` showed an IC50 (p34^cdc2/cyclin B (CDC2)) of 16 µM and an IC50 (IκB-α kinase) greater than 100 µM.

Work on `CCC(CO)Nc1nc(NCc2cccc(Cl)c2O)c2nnn(C(C)C)c2n1` (stereo not shown) yielded an IC50 (p34^cdc2/cyclin B (CDC2)) of 16 µM.

Compound `COc1cccc(CNc2nc(N[C@@H](CO)C(C)C)nc3c2nnn3C(C)C)c1O` has an IC50 (p34^cdc2/cyclin B (CDC2)) of 55 µM and an IC50 (IκB-α kinase) greater than 100 µM.

In the case of `COc1cccc(CNc2nc(NCCO)nc3c2nnn3C)c1O`, the IC50 (p34^cdc2/cyclin B (CDC2)) is reported as 43 µM and the IC50 (IκB-α kinase) is reported as greater than 100 µM.

For `CC[C@H](CO)Nc1nc(Nc2ccccc2)c2nnn(C(C)C)c2n1`, the IC50 (p34^cdc2/cyclin B (CDC2)) was 29 µM and the IC50 (IκB-α kinase) was 70 µM.

With `CC(C)[C@H](CO)Nc1nc(NCc2c(O)cc(Cl)cc2O)c2nnn(C(C)C)c2n1` the IC50 (p34^cdc2/cyclin B (CDC2)) was 18 µM.

For `CC(C)[C@H](CO)Nc1nc(NCc2c(N)cccc2Cl)c2nnn(C(C)C)c2n1`, the IC50 (p34^cdc2/cyclin B (CDC2)) was 10 µM and the IC50 (IκB-α kinase) was greater than 100 µM.

`CC[C@H](CO)Nc1nc(Nc2cc(N)cc(Cl)c2)c2nnn(C(C)C)c2n1` was tested, and the IC50 (p34^cdc2/cyclin B (CDC2)) was 28 µM and the IC50 (IκB-α kinase) was 75 µM.

For `COc1cc(O)c(CNc2nc(NCCO)nc3c2nnn3C)cc1O`, the IC50 (p34^cdc2/cyclin B (CDC2)) was 22 µM.

Compound `CC(=O)c1cccc(CNc2nc(NCCO)nc3c2nnn3C)c1` has an IC50 (p34^cdc2/cyclin B (CDC2)) of 80 µM and an IC50 (IκB-α kinase) greater than 100 µM.

`CC(C)[C@H](CO)Nc1nc(NCc2ccc(O)c(O)c2)c2nnn(C(C)C)c2n1` was tested, and the IC50 (p34^cdc2/cyclin B (CDC2)) was 20 µM and the IC50 (IκB-α kinase) was greater than 100 µM.

`CC[C@H](CO)Nc1nc(NCc2ccc(O)c(O)c2)c2nnn(C(C)C)c2n1` gave an IC50 (p34^cdc2/cyclin B (CDC2)) of 40 µM and an IC50 (IκB-α kinase) greater than 100 µM.
